Laboratory results as given in US20080171783A1, “COMPOSITIONS AND METHODS FOR TREATING HYPERPROLIFERATIVE DISEASE” (Migenix Inc., priority 2006, published 2008).

Legend:
Calf polymerase alpha = target: T1, Calf polymerase alpha (Bos taurus, UniProt A0AAA9TD94); assay: Calf polymerase alpha inhibition (Replizyme kit); assay type: biochemical; conditions: for % Inhibition / inhibition at 10 µM: at 10 μM, single point screening
T1 construct: purchased Replizyme Ltd (Heslington, York, UK)
T1 sequence (A0AAA9TD94 1-1441): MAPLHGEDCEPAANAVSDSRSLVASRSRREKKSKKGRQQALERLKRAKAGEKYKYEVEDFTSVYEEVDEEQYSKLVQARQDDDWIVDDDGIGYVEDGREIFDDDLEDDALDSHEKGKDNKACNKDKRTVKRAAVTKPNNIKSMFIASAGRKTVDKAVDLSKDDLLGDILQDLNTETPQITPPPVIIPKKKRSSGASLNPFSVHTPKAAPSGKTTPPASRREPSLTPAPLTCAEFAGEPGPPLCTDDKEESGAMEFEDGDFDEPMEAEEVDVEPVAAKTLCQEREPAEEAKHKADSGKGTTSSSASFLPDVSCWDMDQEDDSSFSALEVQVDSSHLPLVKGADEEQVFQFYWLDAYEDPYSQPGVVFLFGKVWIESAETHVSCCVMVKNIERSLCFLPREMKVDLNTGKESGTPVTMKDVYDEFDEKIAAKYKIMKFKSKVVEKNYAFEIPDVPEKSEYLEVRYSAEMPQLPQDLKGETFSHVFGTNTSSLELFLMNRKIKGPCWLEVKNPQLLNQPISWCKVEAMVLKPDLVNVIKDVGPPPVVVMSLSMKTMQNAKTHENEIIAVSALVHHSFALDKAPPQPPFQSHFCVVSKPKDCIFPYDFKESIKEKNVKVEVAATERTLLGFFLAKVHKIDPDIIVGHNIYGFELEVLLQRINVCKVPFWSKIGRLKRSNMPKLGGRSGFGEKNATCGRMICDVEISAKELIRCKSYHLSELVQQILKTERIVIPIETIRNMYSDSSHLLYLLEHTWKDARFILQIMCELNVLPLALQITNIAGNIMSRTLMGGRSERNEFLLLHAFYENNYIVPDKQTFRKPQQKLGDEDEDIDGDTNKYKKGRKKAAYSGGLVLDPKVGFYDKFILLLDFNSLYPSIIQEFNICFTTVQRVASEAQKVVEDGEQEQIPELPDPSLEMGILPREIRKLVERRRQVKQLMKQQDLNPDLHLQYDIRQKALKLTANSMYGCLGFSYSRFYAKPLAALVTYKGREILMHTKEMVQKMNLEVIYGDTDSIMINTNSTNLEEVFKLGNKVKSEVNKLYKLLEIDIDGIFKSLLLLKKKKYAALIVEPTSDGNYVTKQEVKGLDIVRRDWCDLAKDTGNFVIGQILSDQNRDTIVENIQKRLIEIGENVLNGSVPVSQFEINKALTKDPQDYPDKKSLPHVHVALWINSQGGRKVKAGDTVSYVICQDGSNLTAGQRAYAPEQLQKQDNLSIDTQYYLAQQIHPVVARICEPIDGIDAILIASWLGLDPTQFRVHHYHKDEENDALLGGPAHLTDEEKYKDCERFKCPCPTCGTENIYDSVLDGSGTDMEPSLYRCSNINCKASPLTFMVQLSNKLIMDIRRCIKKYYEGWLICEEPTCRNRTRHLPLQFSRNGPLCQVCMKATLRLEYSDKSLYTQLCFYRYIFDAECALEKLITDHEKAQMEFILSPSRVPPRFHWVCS
Description: Calf polymerase alpha and human polymerase alpha investigations were performed with a kit available from Replizyme Ltd (Heslington, York, UK).

[1] = system: 5 Leukemia and 5 Colon Cancer Cell Lines; assay: Cell viability by XTT, cell line panel; assay type: cell-based; conditions: for ARF (Average Response Factor, Average Percentage of Control) / Range (Percentage of Control over the same 10 cell lines): 10 μM; for ARF (Average Response Factor, Average Percentage of Control) / viability at 10 µM: average of the ten Percentage of Control values; for Range (Percentage of Control over the same 10 cell lines): lowest to highest of the ten cell lines; for viability at 10 µM: read-out: ARF (Average Response Factor, Average Percentage of Control)
Description: Compounds were solubilized at […] in DMSO and were stored at −20° C. Test compounds were initially tested at a single concentration of 10 μM and a subset of test compounds were further tested in selected cell lines using a six concentration dose response curve.
Cell Preparation Cancer cell lines were passaged in T-75 flasks prior to use in the assay in cell culture medium recommended by the ATCC (American Type Culture Collection; Table 6). On the day preceding the assay, the cells were split 1:2 to assure they were in an exponential growth phase at the time of compound treatment. Total cell and viability quantification was performed using a hemocytometer and Trypan Blue dye exclusion. […] The cells were resuspended at the appropriate cell per mL (Table 6) in tissue culture medium and added to the microtitre plates in a volume of 100 μL. Colon cell lines were incubated overnight at 37° C./5% CO2 to allow for cell adherence to the plates.
Plate Format: Each plate contains cell control wells (cells only), drug calorimetric control wells (drug only) as well as experimental wells (drug plus cells). Samples were tested in triplicate at a concentration of 10 μM and five half-logarithmic dilutions.
Cell Viability by XTT: Following incubation at 37° C. in a 5% CO2 incubator for four days, the test plates were stained with the tetrazolium dye XTT (2,3-bis(2-methoxy-4-nitro-5-sulfophenyl)-5-[(phenylamino)carbonyl]-2H-tetrazolium hydroxide). XTT-tetrazolium was metabolized by the mitochondrial enzymes of metabolically active cells to a soluble formazan product. XTT solution was prepared daily as a stock of 1 mg/mL in RPMI1640. Phenazine methosulfate (PMS) solution was prepared at 0.15 mg/mL in phosphate buffered saline (PBS) and stored in the dark at −20° C. XTT/PMS stock was prepared immediately before use by adding 40 μL of PMS per mL of XTT solution. Fifty (50) microlitres of XTT/PMS was added to each well of the plate and the plate was reincubated for 4 hours at 37° C. Plates were sealed with adhesive plate sealers and shaken gently or inverted several times to mix the soluble formazan product and the plate was read spectrophotometrically at 450/650 nm with a Molecular Devices Vmax plate reader. […] An Average Response Factor (ARF) was calculated for each compound by averaging the ten Percentage of Control values for the cell lines. […] Deviations below 100% control indicate activity. The concentration of each tested compound is 10 μM.

SMILES	% Inhibition (Calf polymerase alpha)	Range (Percentage of Control over the same 10 cell lines) [1]	inhibition at 10 µM (Calf polymerase alpha)	further results
Cc1ccc(NC(=O)[C@H](CCCCN)NS(=O)(=O)c2ccc(-c3ccccc3)cc2)cc1 [Compound 70, (S)-6-AMINO-2-(BIPHENYL-4-SULFONYLAMINO)-HEXANOIC ACID P-TOLYLAMIDE]	50%	61.1 to 115.5%	–	ARF (Average Response Factor, Average Percentage of Control) [1]: 94.5%
NCCCC[C@H](NC(=O)OCC1c2ccccc2-c2ccccc21)C(=O)Nc1ccc2c(c1)CCC2 [Compound 81, (S)-[5-AMINO-1-(INDAN-5-YLCARBAMOYL)-PENTYL]-CARBAMIC ACID 9H-FLUOREN-9-YLMETHYL ESTER]	–	61.3 to 116.5%	101%	viability at 10 µM [1]: 94.2%
Cc1ccc(NC(=O)[C@H](CCCCN)NC(=O)Nc2cccc(Oc3ccccc3)c2)cc1 [Compound 98, (S)-6-AMINO-2-[3-(3-PHENOXY-PHENYL)-UREIDO]-HEXANOIC ACID P-TOLYLAMIDE]	89%	53.8 to 126.6%	–	ARF (Average Response Factor, Average Percentage of Control) [1]: 90.8%
NCCCC[C@H](NC(=O)Nc1ccc(OCc2ccccc2)cc1)C(=O)Nc1ccc(C2CCCCC2)cc1 [Compound 117, (S)-6-AMINO-2-[3-(4-BENZYLOXY-PHENYL)-UREIDO]-HEXANOIC ACID (4-CYCLOHEXYL-PHENYL)-AMIDE]	–	35.7 to 125.7%	102%	viability at 10 µM [1]: 86.5%
NCCCCC[C@H](NC(=O)NCc1ccccc1)C(=O)Nc1ccc(C2CCCCC2)cc1 [Compound 120, (S)-7-AMINO-2-(3-BENZYL-UREIDO)-HEPTANOIC ACID (4-CYCLOHEXYL-PHENYL)-AMIDE]	–	40.4 to 117.1%	100%	viability at 10 µM [1]: 88.4%
Cc1ccc(NC(=O)[C@H](CCCN)NC(=O)Nc2ccc(OCc3ccccc3)cc2)cc1 [Compound 189, (S)-5-AMINO-2-[3-(4-BENZYLOXY-PHENYL)-UREIDO]-PENTANOIC ACID P-TOLYLAMIDE]	76%	66.6 to 107.6%	–	ARF (Average Response Factor, Average Percentage of Control) [1]: 89.0%
Cc1ccc(NC(=O)[C@H](CCCCN)NC(=O)Nc2cccc(OCc3ccccc3)c2)cc1 [Compound 204, (S)-6-AMINO-2-[3-(3-BENZYLOXY-PHENYL)-UREIDO]-HEXANOIC ACID P-TOLYLAMIDE]	94%	70.1 to 116.4%	–	ARF (Average Response Factor, Average Percentage of Control) [1]: 89.3%
Cc1ccc(NC(=O)[C@H](CCCCN)NC(=O)Nc2ccc(NCc3ccc(F)cc3)cc2)cc1 [Compound 225, (S)-6-AMINO-2-{3-[4-(4-FLUORO-BENZYLAMINO)-PHENYL]-UREIDO}-HEXANOIC ACID P-TOLYLAMIDE]	62%	–	–	–
Cc1cc2cc(NC(=O)[C@H](CCNC(=O)CN)NC(=O)Nc3ccc4c(c3)Cc3ccccc3-4)ccc2[nH]1 [Compound 240, (S)-4-(2-AMINO-ACETYLAMINO)-2-[3-(9H-FLUOREN-2-YL)-UREIDO]-N-(2-METHYL-1H-INDOL-5-YL)-BUTYRAMIDE]	–	–	63%	–
Cc1ccc(NC(=O)[C@H](CCCCN)NC(=O)Nc2ccc(CCc3ccccc3)cc2)cc1 [Compound 243, (S)-6-AMINO-2-[3-(4-PHENETHYL-PHENYL)-UREIDO]-HEXANOIC ACID P-TOLYLAMIDE]	0%	–	–	–
Cc1ccc(NC(=O)[C@H](CCCCN)NC(=O)Nc2ccc(OCc3ccccc3F)cc2)cc1 [Compound 248, (S)-6-AMINO-2-{3-[4-(2-FLUORO-BENZYLOXY)-PHENYL]-UREIDO}-HEXANOIC ACID P-TOLYLAMIDE]	61%	–	–	–
Cc1ccc(NC(=O)[C@H](CCCCN)NC(=O)Nc2ccc(OCc3cccc(F)c3)cc2)cc1 [Compound 249, (S)-6-AMINO-2-{3-[4-(3-FLUORO-BENZYLOXY)-PHENYL]-UREIDO}-HEXANOIC ACID P-TOLYLAMIDE]	67%	–	–	–
Cc1ccc(NC(=O)[C@H](CCCCN)NC(=O)Nc2ccc(OCc3ccc(F)cc3)cc2)cc1 [Compound 250, (S)-6-AMINO-2-{3-[4-(4-FLUORO-BENZYLOXY)-PHENYL]-UREIDO}-HEXANOIC ACID P-TOLYLAMIDE]	57%	–	–	–
Cc1ccc(NC(=O)[C@H](CCCCN)NC(=O)Nc2ccc(OCc3cccnc3)cc2)cc1 [Compound 261, (S)-6-AMINO-2-{3-[4-(PYRIDIN-3-YLMETHOXY)-PHENYL]-UREIDO}-HEXANOIC ACID P-TOLYLAMIDE]	55%	–	–	–
NCCCCCCNC(=O)[C@H](Cc1ccccc1)NC(=O)Nc1ccc(OCc2ccccc2)cc1 [Compound 263, (S)—N-(6-AMINO-HEXYL)-2-[3-(4-BENZYLOXY-PHENYL)-UREIDO]-3-PHENYL-PROPIONAMIDE]	–	–	31%	–
Cc1ccc(NC(=O)[C@H](CNC(=O)CN)NC(=O)Nc2ccc(OCc3ccccc3)cc2)cc1 [Compound 268, (S)-3-(2-AMINO-ACETYLAMINO)-2-[3-(4-BENZYLOXY-PHENYL)-UREIDO]-N-P-TOLYL-PROPIONAMIDE]	62.7%	–	–	–
Cc1ccc(NC(=O)CN(CCCCN)C(=O)Nc2ccc(OCc3ccccc3)cc2)cc1 [Compound 278, 2-[1-(4-AMINO-BUTYL)-3-(4-BENZYLOXY-PHENYL)-UREIDO]-N-P-TOLYL-ACETAMIDE]	101%	–	–	–
Cc1ccc(NC(=O)[C@H](CCCCN)NC(=O)Nc2ccc(OCc3ccncc3)cc2)cc1 [Compound 279, (S)-6-AMINO-2-{3-[4-(PYRIDIN-4-YLMETHOXY)-PHENYL]-UREIDO}-HEXANOIC ACID P-TOLYLAMIDE]	15%	–	–	–
NCCCCN(CC(=O)Nc1cccc2[nH]ccc12)C(=O)Nc1ccc(OCc2ccccc2)cc1 [Compound 281, 2-[1-(4-AMINO-BUTYL)-3-(4-BENZYLOXY-PHENYL)-UREIDO]-N-(1H-INDOL-4-YL)-ACETAMIDE]	–	–	30.5%	IC50 (Calf polymerase alpha; dose response): 9.2 µM
Cc1ccc(NC(=O)C(CCCCN)NC(=O)OCC2c3ccccc3-c3ccccc32)cn1 (stereo not drawn) [Compound 294, [5-AMINO-1-(6-METHYL-PYRIDIN-3-YLCARBAMOYL)-PENTYL]-CARBAMIC ACID 9H-FLUOREN-9-YLMETHYL ESTER]	–	–	19%	–
NCCCCCCNC(=O)[C@@H](NC(=O)OCC1c2ccccc2-c2ccccc21)c1ccccc1 [Compound 313, (S)-[(6-AMINO-HEXYLCARBAMOYL)-PHENYL-METHYL]-CARBAMIC ACID 9H-FLUOREN-9-YLMETHYL ESTER]	–	–	43%	–
